Measured values reported in ChEMBL document CHEMBL1139605, “Novel ketal ligands for the glucocorticoid receptor: in vitro and in vivo activity” (Bioorg Med Chem Lett, 2005).

How the values were obtained:
[1] = species: Mus musculus; assay: Effective concentration required for inhibition of interleukin-6 in mouse thioglycolate-elicited peritoneal exudate cell line using 85% radiolabeled Dexamethasone; type: functional
[2] = test system: A549; assay: Effective concentration for inhibition of interleukin-6 in human A549 lung carcinoma cell line using 67% radiolabeled Dexamethasone; type: functional, cell-based
[3] = biological target: T1, Glucocorticoid receptor (Homo sapiens, UniProt P04150); assay: Inhibition of human glucocorticoid receptor alpha isoform
T1 sequence (P04150 whole entry): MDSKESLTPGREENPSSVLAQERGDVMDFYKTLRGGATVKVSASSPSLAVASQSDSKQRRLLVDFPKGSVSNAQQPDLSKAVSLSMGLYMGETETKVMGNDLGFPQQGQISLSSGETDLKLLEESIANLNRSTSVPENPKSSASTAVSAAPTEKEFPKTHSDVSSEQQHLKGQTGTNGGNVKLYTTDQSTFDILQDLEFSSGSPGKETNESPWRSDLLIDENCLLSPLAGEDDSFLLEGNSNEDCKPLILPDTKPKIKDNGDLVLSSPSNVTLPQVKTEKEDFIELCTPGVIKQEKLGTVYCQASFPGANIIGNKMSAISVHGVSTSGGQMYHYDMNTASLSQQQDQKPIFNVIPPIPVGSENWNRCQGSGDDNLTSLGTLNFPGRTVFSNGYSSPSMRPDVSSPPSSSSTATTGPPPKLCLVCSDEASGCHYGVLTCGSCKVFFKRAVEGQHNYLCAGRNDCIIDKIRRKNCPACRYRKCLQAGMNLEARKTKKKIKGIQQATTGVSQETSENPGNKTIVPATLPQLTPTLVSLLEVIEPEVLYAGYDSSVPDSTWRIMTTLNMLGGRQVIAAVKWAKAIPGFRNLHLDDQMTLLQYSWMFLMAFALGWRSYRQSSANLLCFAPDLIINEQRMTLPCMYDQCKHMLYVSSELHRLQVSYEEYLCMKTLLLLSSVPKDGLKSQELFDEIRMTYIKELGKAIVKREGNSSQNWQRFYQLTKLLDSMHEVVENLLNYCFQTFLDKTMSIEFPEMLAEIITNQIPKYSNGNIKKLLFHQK

[4] = Effective concentration required for induction of glutamine synthetase in human skeletal muscle cells using 0% radiolabeled Dexamethasone; type: functional
[5] = species: Mus musculus; assay: Effective concentration required for inhibition of interleukin-6 in mouse thioglycolate-elicited peritoneal exudate cell line using 70% radiolabeled Dexamethasone; type: functional
[6] = species: Mus musculus; assay: Effective concentration required for inhibition of interleukin-6 in mouse thioglycolate-elicited peritoneal exudate cell line using 64% radiolabeled Dexamethasone; type: functional
[7] = test system: A549; assay: Effective concentration for inhibition of interleukin-6 in human A549 lung carcinoma cell line using 64% radiolabeled Dexamethasone; type: functional, cell-based
[8] = test system: A549; assay: Effective concentration for inhibition of interleukin-6 in human A549 lung carcinoma cell line using 46% radiolabeled Dexamethasone; type: functional, cell-based
[9] = Clearance data in mouse at 2 mg/kg IV administration; type: ADME, organism-based; set-up: dose 2 mg/kg, route intravenous; conditions: in vivo
[10] = test system: A549; assay: Effective concentration for inhibition of interleukin-6 in human A549 lung carcinoma cell line using 60% radiolabeled Dexamethasone; type: functional, cell-based
[11] = test system: Mus musculus; assay: Inhibition of LPS induced TNF-alpha secretion in mouse at an oral dose of 30 mg/kg relative to that produced by Dexamethasone at a dose of 0.3 mg/kg; type: functional
[12] = Bioavailability in mouse (dose 10 mg/kg p.o.); type: ADME, organism-based; conditions: in vivo, po
[13] = Volume of distribution in mouse at 2 mg/kg IV administration; type: ADME, organism-based; set-up: dose 2 mg/kg, route intravenous; conditions: in vivo, read-out: Volume of distribution
[14] = biological target: T2, Mineralocorticoid receptor (Rattus norvegicus, UniProt P22199); assay: Binding affinity for rat mineralocorticoid receptor
T2 sequence (P22199 whole entry): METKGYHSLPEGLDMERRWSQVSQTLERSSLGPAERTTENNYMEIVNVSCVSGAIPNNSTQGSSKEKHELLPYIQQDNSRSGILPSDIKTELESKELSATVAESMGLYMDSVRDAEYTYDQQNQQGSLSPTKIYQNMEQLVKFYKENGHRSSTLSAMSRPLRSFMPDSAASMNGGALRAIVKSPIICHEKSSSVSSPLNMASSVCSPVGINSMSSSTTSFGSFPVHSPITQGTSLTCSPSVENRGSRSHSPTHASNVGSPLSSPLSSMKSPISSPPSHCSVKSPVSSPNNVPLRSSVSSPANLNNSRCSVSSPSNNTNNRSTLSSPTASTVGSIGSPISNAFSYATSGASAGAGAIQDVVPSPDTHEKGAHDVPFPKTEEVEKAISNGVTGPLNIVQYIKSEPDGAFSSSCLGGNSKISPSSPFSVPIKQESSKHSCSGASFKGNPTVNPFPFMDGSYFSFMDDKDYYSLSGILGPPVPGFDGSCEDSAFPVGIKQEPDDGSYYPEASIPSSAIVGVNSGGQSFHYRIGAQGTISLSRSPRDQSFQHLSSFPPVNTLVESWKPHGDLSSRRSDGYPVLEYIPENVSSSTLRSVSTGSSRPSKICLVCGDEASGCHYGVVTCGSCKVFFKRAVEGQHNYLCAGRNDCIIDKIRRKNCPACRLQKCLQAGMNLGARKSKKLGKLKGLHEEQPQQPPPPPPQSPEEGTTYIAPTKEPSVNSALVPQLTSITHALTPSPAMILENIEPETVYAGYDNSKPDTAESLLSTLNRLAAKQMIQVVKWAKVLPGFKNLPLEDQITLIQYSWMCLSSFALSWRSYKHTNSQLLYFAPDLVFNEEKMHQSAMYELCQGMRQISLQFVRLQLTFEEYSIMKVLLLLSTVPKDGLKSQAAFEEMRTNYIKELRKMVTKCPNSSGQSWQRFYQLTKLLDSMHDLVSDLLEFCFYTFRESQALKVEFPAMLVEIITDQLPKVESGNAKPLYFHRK

[15] = Half life time in mouse at 2 mg/kg IV administration; type: ADME, organism-based; set-up: dose 2 mg/kg, route intravenous; conditions: in vivo
[16] = biological target: T1, Glucocorticoid receptor; assay: Binding affinity for human glucocorticoid receptor
[17] = biological target: T3, Estrogen receptor (Homo sapiens, UniProt P03372); assay: Binding affinity for human estrogen receptor alpha
T3 sequence (P03372 whole entry): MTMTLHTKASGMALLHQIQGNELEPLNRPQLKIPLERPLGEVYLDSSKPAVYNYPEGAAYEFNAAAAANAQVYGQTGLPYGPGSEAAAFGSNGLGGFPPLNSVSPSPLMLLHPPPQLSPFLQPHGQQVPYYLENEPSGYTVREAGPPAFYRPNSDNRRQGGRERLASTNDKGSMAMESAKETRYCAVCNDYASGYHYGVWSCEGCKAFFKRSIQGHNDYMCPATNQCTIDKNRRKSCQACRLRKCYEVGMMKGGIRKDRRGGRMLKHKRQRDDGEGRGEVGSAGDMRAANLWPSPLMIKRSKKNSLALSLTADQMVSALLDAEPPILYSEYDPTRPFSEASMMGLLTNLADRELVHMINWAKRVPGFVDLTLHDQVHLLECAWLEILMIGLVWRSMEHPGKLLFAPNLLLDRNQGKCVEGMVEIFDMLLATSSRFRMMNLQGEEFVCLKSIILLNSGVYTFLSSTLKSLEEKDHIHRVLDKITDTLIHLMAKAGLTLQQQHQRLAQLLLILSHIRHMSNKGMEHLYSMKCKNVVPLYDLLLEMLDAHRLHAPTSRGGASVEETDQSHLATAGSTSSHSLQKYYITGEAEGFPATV

[18] = species: Mus musculus; assay: Effective concentration required for inhibition of interleukin-6 in mouse thioglycolate-elicited peritoneal exudate cell line using 69% radiolabeled Dexamethasone; type: functional
[19] = species: Mus musculus; assay: Effective concentration required for interleukin-6 transrepression in peritoneal exudate cells of C57B1/6 mouse using 69% Dexamethasone; type: functional, cell-based
[20] = biological target: Estrogen receptor beta (Homo sapiens, UniProt Q92731); assay: Binding affinity for human estrogen receptor beta
[21] = test system: HepG2; assay: Effective concentration required for induction of tyrosine aminotransferase in human HepG2 cells using 74% radiolabeled Dexamethasone; type: functional, cell-based
[22] = Effective concentration required for induction of glutamine synthetase in human skeletal muscle cells using 45% radiolabeled Dexamethasone; type: functional
[23] = species: Mus musculus; assay: Effective concentration required for inhibition of interleukin-6 in mouse thioglycolate-elicited peritoneal exudate cell line using 111% radiolabeled Dexamethasone; type: functional
[24] = test system: A549; assay: Effective concentration required for inhibition of interleukin-6 in human A549 lung carcinoma cell line using 93% radiolabeled Dexamethasone; type: functional, cell-based
[25] = test system: A549; assay: Effective concentration for inhibition of interleukin-6 in human A549 lung carcinoma cell line using 58% radiolabeled Dexamethasone; type: functional, cell-based
[26] = species: Mus musculus; assay: Effective concentration required for inhibition of interleukin-6 in mouse thioglycolate-elicited peritoneal exudate cell line using 72% radiolabeled Dexamethasone; type: functional

Chain of Estrogen receptor beta (Q92731 whole entry): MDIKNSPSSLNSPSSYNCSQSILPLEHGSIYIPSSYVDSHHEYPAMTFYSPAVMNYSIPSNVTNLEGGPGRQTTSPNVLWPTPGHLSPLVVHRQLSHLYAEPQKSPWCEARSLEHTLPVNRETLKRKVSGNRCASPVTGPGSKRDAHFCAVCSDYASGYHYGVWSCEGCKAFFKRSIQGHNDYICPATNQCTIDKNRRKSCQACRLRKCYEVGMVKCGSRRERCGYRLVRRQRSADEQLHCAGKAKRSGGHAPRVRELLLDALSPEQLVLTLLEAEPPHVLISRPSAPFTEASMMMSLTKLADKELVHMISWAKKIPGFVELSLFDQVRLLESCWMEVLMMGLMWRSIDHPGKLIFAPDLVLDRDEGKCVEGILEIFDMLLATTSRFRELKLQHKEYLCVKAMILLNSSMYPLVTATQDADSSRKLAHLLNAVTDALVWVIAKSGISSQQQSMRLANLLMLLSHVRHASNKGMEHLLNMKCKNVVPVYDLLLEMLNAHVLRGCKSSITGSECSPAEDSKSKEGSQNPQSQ

Work on `C[C@]12Cc3cnn(-c4ccc(F)cc4)c3C=C1CCC21O[C@H](c2ccccc2)[C@@H](c2ccccc2)O1` yielded an EC50 [1] of 60 nM, an EC50 [2] of 10 nM and an IC50 [3] of 10 nM. For the same compound, the EC50 [4] was 10 nM.

With `C[C@]12Cc3cnn(-c4ccc(F)cc4)c3C=C1CC[C@]21OC[C@@H](c2ccccc2)O1` the EC50 [5] was 91 nM and the IC50 [3] was 8.5 nM.

Work on `C[C@@H]1C[C@H](C)O[C@@]2(CCC3=Cc4c(cnn4-c4ccc(F)cc4)C[C@@]32C)O1` yielded an EC50 [6] of 19 nM, an IC50 [3] of 3.1 nM and an EC50 [7] of 26 nM.

Compound `C[C@@H]1CCO[C@@]2(CCC3=Cc4c(cnn4-c4ccc(F)cc4)C[C@@]32C)O1` has an EC50 [8] of 0.48 nM and an IC50 [3] of 18 nM.

`C[C@H]1C[C@H](C)OC2(CCC3=Cc4c(cnn4-c4ccc(F)cc4)C[C@@]32C)O1` (some centres not stated) gave a clearance [9] of 118 mL/min/kg, an EC50 [10] of 13 nM and an Inhibition [11] of 80.8%. The bioavailability [12] was 23%, the Vd [13] was 27.2 L/kg and the IC50 [14] was > 10000 nM. For the same compound, the IC50 [3] was 7.1 nM, the half-life [15] was 3 h and the IC50 [16] was 7.1 nM. The IC50 [17] was > 10000 nM, the EC50 [18] was 54 nM and the EC50 [19] was 54 nM. The IC50 [20] was > 10000 nM.

For `C/C=C/[C@H]1OC2(CCC3=Cc4c(cnn4-c4ccc(F)cc4)C[C@@]32C)O[C@@H]1/C=C/C`, the EC50 [21] was 164 nM, the EC50 [22] was 17 nM and the EC50 [23] was 7.6 nM. For the same compound, the IC50 [3] was 2.7 nM and the EC50 [24] was 6.5 nM.

Compound `C[C@@H]1C[C@@H](C)OC2(CCC3=Cc4c(cnn4-c4ccc(F)cc4)C[C@@]32C)O1` (stereo in doubt; form 1) has an EC50 [25] of 7.5 nM, an IC50 [3] of 8.4 nM and an EC50 [26] of 45 nM.
